For the experiment, the target named is Programmed cell death protein 1/Programmed cell death 1 ligand 1 (Homo sapiens, UniProt Q9NZQ7). In words: Inhibition of interaction of PD-1 (unknown origin) expressed in Jurkat T cells co-transfected with NFAT response element/PD-L1 (unknown origin) expressed in CHO-K1 cells by reporter bioassay. The experiment is classed as cell-based.

Each structure is given as a SMILES string.

We go through one molecule from ChEMBL document CHEMBL5532729, “Nonsymmetrically Substituted 1,1'-Biphenyl-Based Small Molecule Inhibitors of the PD-1/PD-L1 Interaction” (ACS Med Chem Lett, 2024).

Sequence of Programmed cell death protein 1/Programmed cell death 1 ligand 1 (Q15116 whole entry): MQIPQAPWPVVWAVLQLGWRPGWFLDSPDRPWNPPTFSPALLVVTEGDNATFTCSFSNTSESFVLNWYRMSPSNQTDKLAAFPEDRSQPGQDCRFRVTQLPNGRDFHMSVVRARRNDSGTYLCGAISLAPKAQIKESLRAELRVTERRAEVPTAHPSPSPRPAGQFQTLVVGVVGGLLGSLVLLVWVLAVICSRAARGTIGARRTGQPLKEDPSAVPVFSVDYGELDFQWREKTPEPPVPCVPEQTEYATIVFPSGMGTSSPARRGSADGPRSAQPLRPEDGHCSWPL
Sequence of Programmed cell death protein 1/Programmed cell death 1 ligand 1 (Q9NZQ7 whole entry): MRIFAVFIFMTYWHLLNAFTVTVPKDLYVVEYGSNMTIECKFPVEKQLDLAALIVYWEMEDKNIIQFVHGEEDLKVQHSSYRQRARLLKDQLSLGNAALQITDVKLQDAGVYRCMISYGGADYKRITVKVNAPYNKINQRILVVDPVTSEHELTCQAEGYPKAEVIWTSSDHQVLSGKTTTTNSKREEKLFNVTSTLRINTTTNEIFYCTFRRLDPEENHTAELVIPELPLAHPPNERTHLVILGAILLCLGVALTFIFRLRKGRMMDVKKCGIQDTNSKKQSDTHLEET

The molecule `Cc1c(NC(=O)c2ccc(CNCCO)cn2)cccc1-c1cccc(NC(=O)c2ccc(CNCCO)cn2)c1C` showed an EC50 of 17 nM.
